Experimental data: US6969449B2, “Multi-well plate and electrode assemblies for ion channel assays” (Vertex Pharmaceuticals (San Diego) LLC, priority 2000, dated 2005)

What was measured:
HL5 cells = type: cell-based
IRK1 channel = IRK1 channel (Rattus norvegicus, UniProt Q64273)
IRK1 channel, sequence (Q64273 whole entry): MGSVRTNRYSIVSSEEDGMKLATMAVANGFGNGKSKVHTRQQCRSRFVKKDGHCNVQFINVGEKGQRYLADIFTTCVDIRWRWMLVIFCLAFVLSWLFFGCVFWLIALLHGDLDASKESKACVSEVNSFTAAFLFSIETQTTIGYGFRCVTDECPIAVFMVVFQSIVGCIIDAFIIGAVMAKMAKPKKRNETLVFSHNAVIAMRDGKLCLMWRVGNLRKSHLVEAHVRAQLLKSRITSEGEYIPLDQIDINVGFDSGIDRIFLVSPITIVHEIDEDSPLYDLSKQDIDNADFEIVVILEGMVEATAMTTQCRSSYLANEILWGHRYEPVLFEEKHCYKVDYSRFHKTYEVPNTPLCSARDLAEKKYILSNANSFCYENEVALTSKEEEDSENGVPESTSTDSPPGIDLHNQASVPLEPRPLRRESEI

Question: Which “block of the positive response” value (HL5 cells) does the source give for `NC1=N[C@H](O)[C@H]2[C@H]3O[C@]4(O)O[C@@H]([C@@H](O)[C@@]2(N1)[C@@H]4O)[C@]3(O)CO` [TTX, tetrodotoxin] here?
Answer: Its value is “partially blocks the positive response”.

Question: And the “effect on sustained signal above 50 V/cm” value (HL5 cells)?
Answer: Its value is “unaffected”.

Question: `[Ba+2].[Cl-].[Cl-]` [barium chloride] was tested. Which “voltage change during stimulation with barium block” value (IRK1 channel) did it give?
Answer: Its value is “no detectable voltage change”.

Question: With `CC[N+](CC)(CC)CC` [TEA, Tetraethylammonium] as the compound, how does the “block of response to electrical stimulation” value (wild-type HEK-293 cells) read?
Answer: Its value is “partially blocks the response”.
